Biological target: T1, CYP21 (steroid 21-hydroxylase) (Homo sapiens, UniProt P08686)
T1 sequence (P08686 whole entry): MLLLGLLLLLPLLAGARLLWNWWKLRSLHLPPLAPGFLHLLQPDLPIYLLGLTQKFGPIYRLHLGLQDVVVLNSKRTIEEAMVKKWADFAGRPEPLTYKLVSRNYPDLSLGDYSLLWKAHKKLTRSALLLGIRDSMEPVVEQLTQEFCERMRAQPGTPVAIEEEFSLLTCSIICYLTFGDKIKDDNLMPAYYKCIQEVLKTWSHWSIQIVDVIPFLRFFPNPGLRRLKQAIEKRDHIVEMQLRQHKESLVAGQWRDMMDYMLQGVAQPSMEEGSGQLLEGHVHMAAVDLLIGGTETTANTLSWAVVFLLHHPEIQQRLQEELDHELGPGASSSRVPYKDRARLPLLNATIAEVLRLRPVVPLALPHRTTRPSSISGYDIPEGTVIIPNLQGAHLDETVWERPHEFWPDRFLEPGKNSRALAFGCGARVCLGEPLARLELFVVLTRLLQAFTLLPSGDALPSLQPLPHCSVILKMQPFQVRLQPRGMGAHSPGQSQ
Assay: Inhibition of human CYP21 transfected in HEK293 cells assessed as decrease in conversion of progesterone to 11-deoxycorticosterone preincubated for 5 hrs followed by progesterone addition measured after 20 hrs by ELISA
Type: cell-based
Design: concentration or dose not given beside the values
Conditions: HEK293 cells transfected with human CYP21, probe progesterone

Row | Compound | inhibition at 20 h [%]
1 | CC1C[C@H]2[C@@H]3CC=C(c4cncc(F)c4)[C@@]3(C)CC[C@@H]2[C@@]2(C)CC[C@H](O)CC12O (stereo not given in full) | 10 to 50
2 | C[C@]12CC[C@H]3[C@@H](CCC4=CC(=O)CC[C@@]43C)C1=CC=C2c1cncc(Cl)c1 | 10 to 50
3 | CC1(C)C2=CC[C@@H]3[C@H](CC[C@]4(C)C(c5cccnc5)=CC[C@@H]34)[C@@]2(C)CCC1O (stereo not given in full) | < 10
4 | CC1C[C@@H]2[C@H](CC[C@]3(C)C(c4cncc(C(F)F)c4)=CC[C@@H]23)[C@@]2(C)CCC(=O)C=C12 (stereo not given in full) | 10 to 50
5 | CCC(=O)O[C@H]1CC[C@@]2(C)C(=CC[C@H]3C4=CC=C(c5cccnc5)[C@@]4(C)CC[C@@H]32)C1 | 10 to 50
6 | CC1C[C@H]2C3=CC=C(c4cncc(C(F)F)c4)[C@@]3(C)CC[C@@H]2[C@@]2(C)CCNC(=O)C=C12 (stereo not given in full) | < 10
7 | C[C@@]1(O)CC[C@@]2(C)C(=CC[C@@H]3[C@@H]2CC[C@]2(C)C(c4cccnc4)=CC[C@@H]32)C1 | ≥ 50
8 | CC(C)(C)NC(=O)O[C@H]1CC[C@@]2(C)C(=CC[C@H]3C4=CC=C(c5cccnc5)[C@@]4(C)CC[C@@H]32)C1 | 10 to 50
9 | Cc1ccncc1C(=O)O[C@H]1CC[C@@]2(C)C(=CC[C@H]3C4=CC=C(c5cccnc5)[C@@]4(C)CC[C@@H]32)C1 | 10 to 50
10 | CC1=C2CC[C@@H]3[C@H](CC[C@]4(C)C(c5cccnc5)=CC[C@@H]34)[C@@]2(C)CC/C1=N\O | 10 to 50
11 | COC1CC[C@@]2(C)C(=CC[C@@H]3[C@@H]2CC[C@]2(C)C(c4cccnc4)=CC[C@@H]32)C1 (stereo not given in full) | < 10
12 | C[C@]12CC[C@H](NC(=O)C(F)(F)F)CC1CC[C@@H]1[C@@H]2CC[C@]2(C)C(c3cccnc3)=CC[C@@H]12 (stereo not given in full) | 10 to 50
13 | C[C@]12CC[C@H](O)CC1CC[C@@H]1[C@@H]2CC[C@]2(C)C(c3cccnc3)CC[C@@H]12 (stereo not given in full) | < 10
14 | CNC1CC[C@@]2(C)[C@@H](CC[C@@H]3[C@@H]2CC[C@]2(C)C(c4cccnc4)=CC[C@@H]32)C1 (stereo not given in full) | 10 to 50
15 | C[C@]12CC[C@H]3[C@@H](CCC45CC4C(O)CC[C@]35C)[C@@H]1CC=C2c1cncc(F)c1 (stereo not given in full) | 10 to 50
16 | C[C@]12CC/C(=N\O)C=C1C(F)C[C@@H]1[C@@H]2CC[C@]2(C)C(c3cccnc3)=CC[C@@H]12 (stereo not given in full) | 10 to 50
17 | Cc1cnc(F)c(C2=CC[C@H]3[C@@H]4CCC5=CC(=O)CC[C@]5(C)[C@H]4CC[C@]23C)c1 | 10 to 50
18 | C[C@]12CC[C@H](O)CC1=CC[C@@H]1[C@@H]2CC[C@]2(C)C(c3cncc(NS(=O)(=O)C(F)(F)F)c3)=CC[C@@H]12 | < 10
19 | C[C@]12CC[C@@H](NS(C)(=O)=O)CC1=CC[C@H]1C3CC=C(c4cccnc4)[C@@]3(C)CC[C@@H]12 (single isomer, unassigned) | 10 to 50
20 | CCNC(=S)N[C@@H]1CC[C@@]2(C)C(=CC[C@@H]3[C@@H]2CC[C@]2(C)C(c4cccnc4)=CC[C@@H]32)C1 | 10 to 50
21 | C[C@]12CC[C@H](O)CC1CC[C@@H]1[C@@H]2CC[C@]2(C)C(c3ccc[n+]([O-])c3)CC[C@@H]12 (stereo not given in full) | 10 to 50
22 | CNC1CC[C@@]2(C)C(CCC3[C@@H]2CC[C@]2(C)C(c4cncc(C)c4)=CC[C@@H]32)C1 (single isomer, unassigned) | 10 to 50
23 | CCNC(=O)N[C@@H]1CC[C@@]2(C)C(CC[C@@H]3[C@@H]2CC[C@]2(C)C(n4ccnc4)=CC[C@@H]32)C1 (stereo not given in full) | ≥ 50
24 | CC(=O)O[C@H]1CC[C@@]2(C)C(CC[C@H]3C4=CC=C(c5cnccc5C)[C@@]4(C)CC[C@@H]32)C1 (stereo not given in full) | 10 to 50
25 | CO[C@H]1CC[C@@]2(C)[C@@H](CC[C@@H]3[C@@H]2CC[C@]2(C)C(c4cnccc4C)=CC[C@@H]32)C1 | 10 to 50
26 | C[C@]12CC[C@H]3[C@@H](CC(Nc4nccs4)C45CC4CC[C@]35C)[C@@H]1CC=C2c1cccnc1 (stereo not given in full) | 10 to 50
27 | Cc1cc(C2=CC[C@H]3[C@@H]4CC=C5C[C@@H](O)CC[C@]5(C)[C@H]4CC[C@]23C)cnc1F | < 10
28 | C[C@]12CCC3(CCC(=O)O3)CC1CC[C@@H]1[C@@H]2CC[C@]2(C)C(c3cccnc3)=CC[C@@H]12 (stereo not given in full) | < 10

Row | Compound | inhibition at 20 h [%]
29 | C[C@]12CC[C@H]3[C@@H](CC(=O)C45CC4CC[C@]35C)C1=CC=C2c1cccnc1 (stereo not given in full) | ≥ 50
30 | Cc1ccncc1C1=CC=C2[C@@H]3CCC4CC(=O)CC[C@]4(C)[C@H]3CC[C@]12C (stereo not given in full) | 10 to 50
31 | C[C@]12CCC(N)CC1CC[C@@H]1[C@@H]2CC[C@]2(C)C(c3cccnc3)=CC[C@@H]12 (single isomer, unassigned) | 10 to 50
32 | COC1CC[C@@]2(C)C(=CC[C@@H]3[C@@H]2CC[C@]2(C)C(c4cncc(C)c4)=CC[C@@H]32)C1 (stereo not given in full) | < 10
33 | CC1(C)C(=O)CC[C@@]2(C)C1=CC[C@@H]1[C@@H]2CC[C@]2(C)C(c3cccnc3)=CC[C@@H]12 | < 10
34 | CCc1ccncc1C1=CC=C2[C@@H]3CCC4C[C@@H](O)CC[C@]4(C)[C@H]3CC[C@]12C (stereo not given in full) | < 10
35 | CCc1ccncc1C1=CC=C2[C@@H]3CCC4C[C@@H](OC(C)=O)CC[C@]4(C)[C@H]3CC[C@]12C (stereo not given in full) | 10 to 50
36 | CCNC(=O)NC1CC[C@@]2(C)C(=CC[C@@H]3[C@@H]2CC[C@]2(C)C(c4cncc(OC)c4)=CC[C@@H]32)C1 (stereo not given in full) | 10 to 50
37 | C[C@]12CC[C@H]3[C@@H](CC=C4C[C@@H](O)CC[C@@]43C)C1=CC=C2c1cncc(Cl)c1 | 10 to 50
38 | CCc1ccncc1C1=CC=C2[C@@H]3CCC4CC(=O)CC[C@]4(C)[C@H]3CC[C@]12C (stereo not given in full) | 10 to 50
39 | C[C@]12CCC(=O)C=C1C(C1CC1)C[C@@H]1[C@@H]2CC[C@]2(C)C(c3cncc(F)c3)=CC[C@@H]12 (stereo not given in full) | 10 to 50
40 | CCc1ccncc1C1=CC=C2[C@@H]3CCC4CNC(=O)CC[C@]4(C)[C@H]3CC[C@]12C (stereo not given in full) | 10 to 50
41 | CC(=O)N(C)[C@H]1CC[C@@]2(C)C(CC[C@@H]3[C@@H]2CC[C@]2(C)C(c4cccnc4)=CC[C@@H]32)C1 (stereo not given in full) | 10 to 50
42 | CC(=O)NC1CC[C@@]2(C)C(CC[C@@H]3[C@@H]2CC[C@]2(C)C(c4cccnc4)=CC[C@@H]32)C1C (stereo not given in full) | < 10
43 | CN1C(=O)CC[C@@]2(C)C1=CC[C@@H]1[C@@H]2CC[C@]2(C)C(c3cnccc3F)=CC[C@@H]12 | 10 to 50
44 | C[C@@H]1C2CC[C@@H]3[C@H](CC[C@]4(C)C(c5cncc(C(F)F)c5)=CC[C@@H]34)[C@@]2(C)CC[C@H]1O (stereo not given in full) | < 10
45 | C[C@]12CCC(=O)C=C1C(n1ccnn1)C[C@@H]1[C@@H]2CC[C@]2(C)C(c3cccnc3)=CC[C@@H]12 (stereo not given in full) | 10 to 50
46 | CCNC(=O)N[C@@H]1CC[C@@]2(C)C(=CC[C@@H]3[C@@H]2CC[C@]2(C)C(c4cncc(F)c4)=CC[C@@H]32)C1 | 10 to 50
47 | CC1C[C@@H]2[C@H](CC[C@]3(C)C(c4cccnc4)=CC[C@@H]23)[C@@]2(C)CC[C@@](C)(O)CC12 (stereo not given in full) | 10 to 50
48 | C[C@]12CC[C@H]3[C@@H](CC=C4C[C@@H](OC(=O)c5ccccc5)CC[C@@]43C)C1=CC=C2c1cccnc1 | 10 to 50
49 | CN1C(=O)CC[C@@]2(C)C1=CC[C@@H]1[C@@H]2CC[C@]2(C)C(c3cncc(C(F)F)c3)=CC[C@@H]12 | < 10
50 | CC1C[C@H]2C3=CC=C(c4ccc(F)nc4)[C@@]3(C)CC[C@@H]2[C@@]2(C)CCNC(=O)C=C12 (stereo not given in full) | 10 to 50
51 | CC1C[C@@H]2[C@H](CC[C@]3(C)C(c4cccnc4)=CC[C@@H]23)[C@@]2(C)CC[C@](C)(O)CC12 (stereo not given in full) | 10 to 50
52 | C[C@]12CC[C@H](O)CC1=CC[C@@H]1[C@@H]2CC[C@]2(C)C(c3cncc(C#N)c3)=CC[C@@H]12 | 10 to 50
53 | Cc1ccncc1C1=CC=C2[C@@H]3CC[C@H]4CC(=O)NCC[C@]4(C)[C@H]3CC[C@]12C | 10 to 50
54 | C[C@]12CCC3(CO3)CC1CCC1C2CC[C@]2(C)C(c3cccnc3)=CCC12 (stereo not given in full) | 10 to 50
55 | C[C@]12CC[C@H]3[C@@H](CC=C4C=CCC[C@@]43C)C1=CC=C2c1cccnc1 | 10 to 50

Source: ChEMBL document CHEMBL3882724 (2013)
